Experimental findings from patent publication US20250206745A1, “PYRROLOPYRIDAZINE DERIVATIVES AND RELATED USES” (NodThera Limited, priority 2023, published 2025) are described below.

In experiment [1] the test system is IL-1β release upon NLRP3 activation in phorbol 12-myristate 13-acetate (PMA)-differentiated THP-1 cells. The experiment is described as follows: THP-1 IC50 Determination Assay. It is filed as cell-based. To be noted: Homo sapiens, inhibition of IL-1β release, LPS, nigericin, ELISA. A digest of the protocol: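 THP-1 cells differentiated with 5 ng/mL PMA for ~40 h, plated 30,000/well and primed 2 h with 25 ng/mL LPS. Compounds added as 8-point 1:3 series (0.5% DMSO), then nigericin activation for 2 h at 37 °C; supernatant IL-1β measured by ELISA.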
On the technique in general: An ELISA detects its analyte on a solid surface through an enzyme-linked reagent.

Experiment [2] relates to IL-1β release upon NLRP3 activation in peripheral blood mononuclear cells (PBMC). The experiment is described as follows: PBMC IC50 Determination Assay. As to conditions: Homo sapiens; inhibition of IL-1β release; PBMC primed with LPS, stimulated with ATP or nigericin; ELISA or HTRF. It is filed as cell-based. A digest of the protocol:
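Human buffy-coat PBMC primed 3 h with LPS (1 μg/mL in Protocol B), given compound for 30 min, then stimulated 1 h with 5 mM ATP or 10 μM nigericin (Protocol A) or 5 mM ATP (Protocol B). IL-1β in supernatant measured by ELISA at 450 nm (A) or HTRF (B).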

Where a name gives a salt, the structure may show the parent alone.

For the molecule `CC(=O)NCCn1ccc2cc(-c3c(C)cc(Cl)cc3O)nnc21` [Compound 44, N-{2-[3-(4-Chloro-2-hydroxy-6-methylphenyl)-7H-pyrrolo[2,3-c]pyridazin-7-yl]ethyl}acetamide], the IC50 in experiment [1] and in experiment [2] was 300 to 1000 nM each time.

On to `Cc1cc(Cl)cc(O)c1-c1cc2ccn(CCN3CCC(=O)C3)c2nn1` [Compound 45, 1-{2-[3-(4-Chloro-2-hydroxy-6-methylphenyl)-7H-pyrrolo[2,3-c]pyridazin-7-yl]ethyl}pyrrolidin-3-one], for which the IC50 in experiment [1] and in experiment [2] was 300 to 1000 nM each time.

Turning to `Cc1cc(Cl)cc(O)c1-c1cc2ccn(C[C@@H]3CCCCN3C)c2nn1` [Compound 46, 5-Chloro-3-methyl-2-(7-{[(2S)-1-methylpiperidin-2-yl]methyl}-7H-pyrrolo[2,3-c]pyridazin-3-yl)phenol hydrochloride], the IC50 (commonly the concentration that gives 50% inhibition) in experiment [1] lay in the range of 100 to 300 nM; in experiment [2], 30 to 100 nM.

Take `Cc1cc(Cl)cc(O)c1-c1cc2ccn(C[C@H]3CCCCN3C)c2nn1` [Compound 47, 5-Chloro-3-methyl-2-(7-{[(2R)-1-methylpiperidin-2-yl]methyl}-7H-pyrrolo[2,3-c]pyridazin-3-yl)phenol hydrochloride]: the results for the IC50 in experiment [1] and in experiment [2] were 300 to 1000 nM and 100 to 300 nM, respectively.

Take `Cc1cc(Cl)cc(O)c1-c1cc2ccn(CC3COC3)c2nn1` [Compound 48, 5-Chloro-3-methyl-2-{7-[(oxetan-3-yl)methyl]-7H-pyrrolo[2,3-c]pyridazin-3-yl}phenol]: the IC50 in experiment [1] and in experiment [2] was 100 to 300 nM in each case.

Regarding `Cc1cc(Cl)cc(O)c1-c1cc2ccn(CC3CCN(C)C4(CC4)C3)c2nn1` (stereo not drawn) [Compound 49, 5-Chloro-3-methyl-2-[7-({4-methyl-4-azaspiro[2.5]octan-7-yl}methyl)-7H-pyrrolo[2,3-c]pyridazin-3-yl]phenol hydrochloride], the IC50 lay within 300 to 1000 nM in experiment [1] and 100 to 300 nM in experiment [2].

In the case of `Cc1cc(Cl)cc(O)c1-c1cc2ccn(C(=O)N3CCN(C)CC3)c2nn1` [Compound 50, 5-Chloro-3-methyl-2-[7-(4-methylpiperazine-1-carbonyl)-7H-pyrrolo[2,3-c]pyridazin-3-yl]phenol hydrochloride], the IC50 in experiment [1] was in the range of 300 to 1000 nM; in experiment [2] it was 3000 to 10000 nM.

On to `Cc1cc(Cl)cc(O)c1-c1cc2ccn(CC3CC4(C3)CN(C)C4)c2nn1` [Compound 52, 5-Chloro-3-methyl-2-[7-({2-methyl-2-azaspiro[3.3]heptan-6-yl}methyl)-7H-pyrrolo[2,3-c]pyridazin-3-yl]phenol hydrochloride], for which the IC50 fell in the range of 100 to 300 nM in experiment [1] and 300 to 1000 nM in experiment [2].

`CC(=O)N1CCCC(Cn2ccc3cc(-c4c(C)cc(Cl)cc4O)nnc32)C1` (stereo not drawn) [Compound 53, 1-(3-{[3-(4-Chloro-2-hydroxy-6-methylphenyl)-7H-pyrrolo[2,3-c]pyridazin-7-yl]methyl}piperidin-1-yl)ethan-1-one]: the IC50 in experiment [1] and in experiment [2] was 100 to 300 nM in each case.

As to `Cc1cc(C#N)cc(O)c1-c1cc2ccn(CC3CCN(C)CC3)c2nn1` [Compound 54, 3-Hydroxy-5-methyl-4-{7-[(1-methylpiperidin-4-yl)methyl]-7H-pyrrolo[2,3-c]pyridazin-3-yl}benzonitrile], the IC50 in experiment [1] is 300 to 1000 nM; in experiment [2] it was 100 to 300 nM.

As for `Cc1cc(Cl)cc(O)c1-c1cc2ccn(CC3(C#N)CCN(C)CC3)c2nn1` [Compound 55, 4-{[3-(4-Chloro-2-hydroxy-6-methylphenyl)-7H-pyrrolo[2,3-c]pyridazin-7-yl]methyl}-1-methylpiperidine-4-carbonitrile], the IC50 in experiment [1] and in experiment [2] was 30 to 100 nM each time.

As for `Cc1cc(Cl)cc(O)c1-c1cc2ccn(CC3(O)CCN(C)CC3)c2nn1` [Compound 56, 4-{[3-(4-Chloro-2-hydroxy-6-methylphenyl)-7H-pyrrolo[2,3-c]pyridazin-7-yl]methyl}-1-methylpiperidin-4-ol hydrochloride], the IC50 in experiment [1] and in experiment [2] was < 30 nM in each case.
